Measured values: patent publication US12503440B2, “Nitroxoline derivative, preparation method therefor, and use thereof” (Jiangsu Yahong Meditech Co., Ltd., priority 2020, dated 2025)
In brackets after ≈: the same amount, converted by molar mass.

How the values were obtained:
Assay type in all cases: cell-based
Staphylococcus aureus = test: Bacteriostatic activity, micro broth dilution MIC (CLSI); conditions: 20 hours; for MIC50 / MIC90: clinical strains (methicillin-resistant and sensitive), CAMHB; for MIC50: read-out: Staphylococcus aureus Clinical strain MIC50; for MIC90: read-out: Staphylococcus aureus Clinical strain MIC90; for MIC: standard strain ATCC29213, CAMHB
Protocol: (§1) The purpose of this test is to determine the bacteriostatic activity of the compounds of the present invention against a representative panel of strains (Gram-negative bacteria: […] ATCC 25922, Acinetobacter baumannii ATCC 19606; Gram-positive bacteria: Staphylococcus aureus ATCC29213). Bacteriostatic activity was determined by minimum inhibitory concentration (MIC), MIC50, MIC90. This test was entrusted to Shanghai Junj Lab Co., Ltd. Except for the test drugs, all other test materials were provided by Shanghai Junj Lab Co., Ltd.
(§2) The tested bacteria were several strains of clinically isolated carbapenem-resistant Escherichia coli, several strains of carbapenem-resistant Acinetobacter baumannii, several strains of methicillin-resistant Staphylococcus aureus, and several strains of sensitive Staphylococcus aureus. Duplicate strains isolated from the same patient were eliminated. There were also three quality control strains Escherichia coli ATCC 25922, Acinetobacter baumannii ATCC 19606, and Staphylococcus aureus ATCC 29213. The activity test of each compound was carried out on one or more strains of each of the above test bacteria.
(§3) According to the recommendations of relevant documents of the American Clinical and Laboratory Standards Institute (CLSI), the micro broth dilution method was used to determine the MIC of the compounds of the present invention against clinically isolated strains. The culture solution free of drug was used as the test bacteria positive control, the culture solution free of bacterial solution was used as the drug negative control, and the culture solution free of drug solution and bacterial solution was used as the blank control. • 4.1 Formulation of antibacterial drug: All the compounds of the present invention were dissolved in DMSO. The drug concentration range was 128 mg/L-0.06 mg/L. Specific method: The compounds of the present invention were successively diluted by 1:1 with DMSO to obtain an intermediate series with a range of 25600 mg/L-12.5 mg/L. 30 μL of solution from each tube of the intermediate series of each compound was added to a 3 mL/tube series of single broth tube, and mixed well to obtain an intermediate series with a range of 256 mg/L to 0.125 mg/L. The diluted series solution was added to the drug susceptibility plate line by line, 50 μL of solution per well. All ranges became investigated ranges after being mixed with an equal volume of bacterial solution: 128-0.06 mg/L. • 4.2 Culture medium: The drug susceptibility test used cation adjusted Mueller-Hinton broth (CAMHB). • 4.3 Amount of inoculum: The test bacteria cultured overnight were adjusted to 0.5 McFarland turbidity by the direct colony suspension method, and diluted 100 folds, the final inoculum amount was 10^5 CFU/mL. • 4.4 Culture conditions: The test bacteria were cultured at 35±2° C. for 20 hours in air. 5. Interpretation and Judgment of Results
(§4) The drug susceptibility test results were interpretated by reference to CLSI 2019 edition M100 29th edition criteria.
(§5) The results of drug susceptibility test were statistically analyzed by WHONET version 5.6 software.
(§6) The culture solution free of bacterial solution was used as the drug negative control, and the culture solution free of drug solution and bacterial solution was used as the blank control, wherein no bacteria grew in both solutions.

Escherichia coli = test: as above; conditions: 20 hours; for MIC50 / MIC90: clinical strains (carbapenem-resistant), CAMHB; for MIC50: read-out: Escherichia coli Clinical strain MIC50; for MIC90: read-out: Escherichia coli Clinical strain MIC90; for MIC: standard strain ATCC25922, CAMHB
Protocol: as §1, §2, §3, §4, §5, §6

Acinetobacter baumannii = test: as above; conditions: 20 hours; for MIC50 / MIC90: clinical strains (carbapenem-resistant), CAMHB; for MIC50: read-out: Acinetobacter baumannii Clinical strain MIC50; for MIC90: read-out: Acinetobacter baumannii Clinical strain MIC90; for MIC: standard strain ATCC19606, CAMHB
Protocol: as §1, §2, §3, §4, §5, §6

[1] = test system: Bladder cancer cell line UM-UC-3; test: Inhibitory activity on cancer cells, CellTiter-Glo viability, 72 h; conditions: Homo sapiens, UMUC3, UM-UC-3, 72 h
Excerpt: • HUVEC (purchased from Allcells Biological Technology (Shanghai) Co., Ltd.); UM-UC-3 (ATCC); LNCaP Clone FGC (ATCC); RM-1 (purchased from Nanjing Cobioer Biosciences Co., Ltd.) 2. Reagents • Endothelial cell complete medium (Allcells, H-004) • Medium RPMI1640 (ATCC, 30-2001) • Medium EMEM (ATCC, 30-2003) • Medium DMEM (Gibco, 12430-054) • Fetal bovine serum (Gibco, 10091148) • Penicillin-streptomycin double anti-body (Gibco, S110JV) • DPBS (Gibco, 14190-144) • CellTiter-Glo® kit (Promega, G7573) • Trypsin (0.25%), phenol red (Gibco, 25200-056) • DMSO (Sigma, D2650) 3. Instruments • Biological safety cabinet (Suzhou Antai Airtech Co., Ltd., BSC-1300A II) • Inverted microscope (Nikon, CKX53) • Automated cell counter (Life Technologies, countess II) • Multifunctional microplate reader (Biotek, H1FM) • Shaker (Hangzhou Allsheng Instruments Co., Ltd., OS-100) • GraphPad Prism 5.0 software • XLFIT 5.3 (Inforstack Shanghai Co., Ltd.) 4. Test Method
In this test method, the following experiments were carried out in a biological safety cabinet, and the specific steps are as follows: • (1) On the first day, the cells were seeded in a 96-well plate, and the previous medium was poured off. 5 mL of DPBS was added to wash the cells, and then removed by a pipette. Then, 1 mL of trypsin (0.25%) was added, and the plate was placed in a cell culture incubator at 37° C., 5% CO2 for digestion, and taken out after about 2 to 5 minutes. New corresponding medium was added, and pipetted to resuspend the cells evenly, and the cells were then counted with an automated cell counter.
The digestion was observed using an inverted microscope.
Regarding to HUVEC, the medium used was endothelial cell complete medium; regarding to UM-UC-3, the medium used was 89v % EMEM+10v % fetal bovine serum+1 v % penicillin-streptomycin double anti-body; regarding to LNcaP Clone FGC, the medium used was 89v % RPM11640+10v % fetal bovine serum+1 v % penicillin-streptomycin double anti-body; and regarding to RM-1, the medium used was 89v % DMEM+10v % fetal bovine serum+1v % penicillin-streptomycin double anti-body. • (2) HUVEC cells were seeded in columns 1 to 11 of a 96-well plate (Corning, Cat. No. 3610) at a density of 2000 cells per well in 100 μL of medium, and the medium free of cell was added to the wells of column 12. The other three types of cells were also seeded, wherein UM-UC-3 and RM-1 cells were seeded at a density of 3000 cells per well, and LNCap Clone FGC cells were seeded at a density of 5000 cells per well. Then, the plate was placed in an incubator at 37° C., 5% CO2 for 24 hours. • (3) On the second day, the compounds of the present invention and the reference drug nitroxoline (obtained according to the preparation method disclosed in the prior art) were diluted in gradient (2.5 folds, started at 100 μmol) to obtain 8 dose points (there were a total of 8 columns of wells; the first column of wells had the highest concentration, the concentration decreased in turn, and the last column of wells had the lowest concentration). 10 uL of the compound diluted in gradient was added to the 100 μL of cells in column 1 to column 10 with an 8-channel pipette. 10 μL of the corresponding medium containing 0.33v % DMSO was added to column 11 and column 12. The plate was incubated in an incubator at 37° C., 5% CO2 for 72 hours (note: column 11 was used as MAX well with cells and no compounds; and column 12 was used as MIN well with no cells and no compounds). • (4) After treating with the compounds of the present invention for 72 hours, the cell viability detection reagents in the above CellTiter-Glo® kit were added to the 96-well plate at 50 μL per well according to the instructions. […]

SMILES	MIC50 (Staphylococcus aureus) [µg/mL]	MIC90 (Staphylococcus aureus) [µg/mL]	MIC (Staphylococcus aureus) [µg/mL]	MIC50 (Escherichia coli) [µg/mL]	MIC90 (Escherichia coli) [µg/mL]	MIC (Escherichia coli) [µg/mL]	MIC50 (Acinetobacter baumannii) [µg/mL]	MIC90 (Acinetobacter baumannii) [µg/mL]	MIC (Acinetobacter baumannii) [µg/mL]	IC50 [1] [µM]
CCOC(=O)c1cnc2c(O)ccc([N+](=O)[O-])c2c1 [Example 32, ethyl 8-hydroxy-5-nitroquinoline-3-carboxylate]	2 (≈ 7.63 µM)	4 (≈ 15.3 µM)	4 (≈ 15.3 µM)	64 (≈ 244 µM)	128 (≈ 488 µM)	64 (≈ 244 µM)	64 (≈ 244 µM)	128 (≈ 488 µM)	32 (≈ 122 µM)	
CC(C)c1cc(O)c2ncccc2c1[N+](=O)[O-] [Example 33, 8-hydroxy-6-isopropyl-5-nitroquinoline]	4 (≈ 17.2 µM)	4 (≈ 17.2 µM)		32 (≈ 138 µM)	32 (≈ 138 µM)		32 (≈ 138 µM)	64 (≈ 276 µM)		
O=[N+]([O-])c1ccc(O)c2nccc(N3CCCCC3)c12 [Example 6, 5-nitro-4-(piperidin-1-yl)quinolin-8-ol]										7
O=[N+]([O-])c1cc(F)c(O)c2ncccc12 [Example 1, 7-fluoro-5-nitroquinolin-8-ol]	4 (≈ 19.2 µM)	4 (≈ 19.2 µM)		4 (≈ 19.2 µM)	8 (≈ 38.4 µM)	8 (≈ 38.4 µM)	8 (≈ 38.4 µM)	16 (≈ 76.9 µM)		
O=C(OCC1CC1)c1cnc2c(O)ccc([N+](=O)[O-])c2c1 [Example 39, cyclopropylmethyl 8-hydroxy-5-nitroquinoline-3-carboxylate]	1 (≈ 3.47 µM)	1 (≈ 3.47 µM)	2 (≈ 6.94 µM)	64 (≈ 222 µM)	64 (≈ 222 µM)	64 (≈ 222 µM)				
N#Cc1ccnc2c(O)ccc([N+](=O)[O-])c12 [Example 27, 4-cyano-5-nitroquinolin-8-ol]	16 (≈ 74.4 µM)	16 (≈ 74.4 µM)	16 (≈ 74.4 µM)	16 (≈ 74.4 µM)	32 (≈ 149 µM)	16 (≈ 74.4 µM)	32 (≈ 149 µM)	32 (≈ 149 µM)	16 (≈ 74.4 µM)	
O=C(OC1CCCCC1)c1cnc2c(O)ccc([N+](=O)[O-])c2c1 [Example 43, cyclohexyl 8-hydroxy-5-nitroquinoline-3-carboxylate]	2 (≈ 6.32 µM)	2 (≈ 6.32 µM)	4 (≈ 12.6 µM)	128 (≈ 405 µM)	128 (≈ 405 µM)	128 (≈ 405 µM)	128 (≈ 405 µM)	128 (≈ 405 µM)	128 (≈ 405 µM)	
O=[N+]([O-])c1ccc(O)c2nccc(C(F)(F)F)c12 [Example 26, 5-nitro-4-trifluoromethylquinolin-8-ol]	2 (≈ 7.75 µM)	2 (≈ 7.75 µM)	2 (≈ 7.75 µM)	8 (≈ 31 µM)	16 (≈ 62 µM)	8 (≈ 31 µM)	8 (≈ 31 µM)	8 (≈ 31 µM)	8 (≈ 31 µM)	
O=[N+]([O-])c1ccc(O)c2nccc(C3CCCCC3)c12 [Example 25, 4-cyclohexyl-5-nitroquinolin-8-ol]	4 (≈ 14.7 µM)	4 (≈ 14.7 µM)	4 (≈ 14.7 µM)	32 (≈ 118 µM)	32 (≈ 118 µM)	32 (≈ 118 µM)	32 (≈ 118 µM)	32 (≈ 118 µM)	32 (≈ 118 µM)	
O=[N+]([O-])c1c(F)cc(O)c2ncccc12 [Example 42, 8-hydroxy-6-fluoro-5-nitroquinoline]	64 (≈ 307 µM)	64 (≈ 307 µM)	64 (≈ 307 µM)	64 (≈ 307 µM)	64 (≈ 307 µM)	64 (≈ 307 µM)				
CCN(CC)C(=O)c1cnc2c(O)ccc([N+](=O)[O-])c2c1 [Example 40, N,N-diethyl-8-hydroxy-5-nitroquinoline-3-carboxamide]	64 (≈ 221 µM)	64 (≈ 221 µM)	32 (≈ 111 µM)	8 (≈ 27.7 µM)	8 (≈ 27.7 µM)	8 (≈ 27.7 µM)				
O=[N+]([O-])c1c(C2CC2)cc(O)c2ncccc12 [Example 34, 8-hydroxy-6-cyclopropyl-5-nitroquinoline]	4 (≈ 17.4 µM)	4 (≈ 17.4 µM)		16 (≈ 69.5 µM)	16 (≈ 69.5 µM)		8 (≈ 34.7 µM)	32 (≈ 139 µM)		
